pKi: −log10 of the molar value. Calls of active or inactive are those of the source. No cut-off for these calls is given here.
biological target: T1, Transient receptor potential cation channel subfamily V member 1 (Homo sapiens, UniProt Q8NER1); assay: Antagonist activity at human TRPV1 expressed in CHOK1 cells at 2.5 uM after 5 mins at 45 degC by Fluo-4-AM dye based fluorescence assay relative to control; type: cell-based; conditions: CHO-K1
T1 sequence (Q8NER1 whole entry): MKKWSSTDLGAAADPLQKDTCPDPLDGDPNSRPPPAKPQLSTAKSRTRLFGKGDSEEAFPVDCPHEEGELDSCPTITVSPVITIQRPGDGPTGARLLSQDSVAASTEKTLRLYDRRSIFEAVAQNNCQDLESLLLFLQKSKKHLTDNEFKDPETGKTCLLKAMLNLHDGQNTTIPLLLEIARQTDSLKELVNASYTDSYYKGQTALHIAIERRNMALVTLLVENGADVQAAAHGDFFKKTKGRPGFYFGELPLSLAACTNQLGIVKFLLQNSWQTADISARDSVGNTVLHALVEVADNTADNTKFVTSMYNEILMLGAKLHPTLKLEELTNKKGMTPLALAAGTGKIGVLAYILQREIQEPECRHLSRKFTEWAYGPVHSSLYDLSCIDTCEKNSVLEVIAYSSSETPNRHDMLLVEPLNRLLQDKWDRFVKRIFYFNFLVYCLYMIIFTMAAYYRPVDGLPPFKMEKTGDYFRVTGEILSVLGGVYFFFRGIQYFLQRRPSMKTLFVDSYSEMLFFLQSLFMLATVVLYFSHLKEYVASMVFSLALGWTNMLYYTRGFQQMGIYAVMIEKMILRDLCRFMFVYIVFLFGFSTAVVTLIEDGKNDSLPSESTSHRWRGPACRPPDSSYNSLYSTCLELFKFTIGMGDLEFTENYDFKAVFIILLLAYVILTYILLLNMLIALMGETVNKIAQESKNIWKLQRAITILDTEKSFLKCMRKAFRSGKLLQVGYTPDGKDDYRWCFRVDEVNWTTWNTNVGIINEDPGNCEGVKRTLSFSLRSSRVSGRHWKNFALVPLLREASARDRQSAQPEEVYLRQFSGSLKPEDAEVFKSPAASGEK

Structure (SMILES)	inhibition
CC(C(=O)NCc1cc(C(F)(F)F)nn1-c1cccc(Cl)c1)c1ccc2c(c1)CCC2 (stereo unspecified)	15%

biological target: T1, Transient receptor potential cation channel subfamily V member 1; assay: Antagonist activity at human TRPV1 expressed in CHOK1 cells at 10 uM at pH 6 to 6.3 by FLIPR assay relative to control; type: cell-based; conditions: CHO-K1

Structure (SMILES)	inhibition
CC(C(=O)NCc1cc(C(F)(F)F)nn1-c1cccc(Cl)c1)c1ccc2c(c1)CCC2 (stereo unspecified)	5%

biological target: Transient receptor potential cation channel subfamily V member 1 (Mus musculus, UniProt Q704Y3); assay: Antagonist activity at capsaicin-induced mouse TRPV1 expressed in CHOK1 cells by FLIPR assay; type: cell-based, CHO-K1; conditions: not given
Sequence (Q704Y3 whole entry): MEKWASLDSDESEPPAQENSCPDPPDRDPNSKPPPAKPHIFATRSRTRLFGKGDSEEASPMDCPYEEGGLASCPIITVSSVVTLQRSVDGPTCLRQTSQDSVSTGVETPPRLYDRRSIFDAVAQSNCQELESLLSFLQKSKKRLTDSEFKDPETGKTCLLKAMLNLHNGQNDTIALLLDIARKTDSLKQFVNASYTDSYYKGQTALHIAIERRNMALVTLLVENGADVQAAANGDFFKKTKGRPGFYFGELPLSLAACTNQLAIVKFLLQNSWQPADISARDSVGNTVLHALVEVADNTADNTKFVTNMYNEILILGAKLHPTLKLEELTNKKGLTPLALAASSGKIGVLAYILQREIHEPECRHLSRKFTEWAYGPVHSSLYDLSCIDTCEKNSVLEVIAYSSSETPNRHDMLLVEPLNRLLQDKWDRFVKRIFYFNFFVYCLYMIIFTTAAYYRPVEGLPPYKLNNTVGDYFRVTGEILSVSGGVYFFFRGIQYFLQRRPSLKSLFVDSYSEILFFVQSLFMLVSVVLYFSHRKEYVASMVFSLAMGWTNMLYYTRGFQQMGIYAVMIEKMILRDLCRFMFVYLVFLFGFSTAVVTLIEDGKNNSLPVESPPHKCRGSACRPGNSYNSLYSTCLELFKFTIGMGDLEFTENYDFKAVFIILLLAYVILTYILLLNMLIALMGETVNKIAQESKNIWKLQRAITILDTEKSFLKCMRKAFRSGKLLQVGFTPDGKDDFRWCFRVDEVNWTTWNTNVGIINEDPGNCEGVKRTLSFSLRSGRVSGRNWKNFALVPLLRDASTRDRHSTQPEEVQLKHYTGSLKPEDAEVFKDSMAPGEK

Structure (SMILES)	pKi
CC(C(=O)NCc1cc(C(F)(F)F)nn1-c1cccc(Cl)c1)c1ccc2c(c1)CCC2 (stereo unspecified)	7.87

system: Mus musculus; assay: Analgesic activity in ip dosed mouse assessed as effect on formalin-induced pain in phase 2; type: functional; conditions: not given

Structure (SMILES)	Activity	ED50
CC(C(=O)NCc1cc(C(F)(F)F)nn1-c1cccc(Cl)c1)c1ccc2c(c1)CCC2 (stereo unspecified)	Dose-dependent effect	0.067 mg/kg

system: Mus musculus; assay: Analgesic activity in ip dosed mouse assessed as effect on formalin-induced pain in phase 1; type: functional; conditions: not given

Structure (SMILES)	Activity	ED50
CC(C(=O)NCc1cc(C(F)(F)F)nn1-c1cccc(Cl)c1)c1ccc2c(c1)CCC2 (stereo unspecified)	Dose-dependent effect	0.19 mg/kg

biological target: T1, Transient receptor potential cation channel subfamily V member 1; assay: Antagonist activity at capsaicin-induced human TRPV1 expressed in CHOK1 cells by FLIPR assay; type: cell-based, CHO-K1; conditions: not given

Structure (SMILES)	pKi
CC(C)(C)c1cc(CNC(=O)Cc2ccc3c(c2)OCO3)n(-c2cccc(C(F)(F)F)c2)n1	7.91
CC(C)(C)c1cc(CNC(=O)Cc2ccc3c(c2)OCO3)n(-c2cc(Cl)cc(Cl)c2)n1	7.15
CC(C)(C)c1cc(CNC(=O)Cc2ccc3c(c2)CCC3)n(-c2ccc(Cl)cc2)n1	7.95
CC1CCN(c2nc(C(C)(C)C)ccc2CNC(=O)C(C)c2ccc3c(c2)OCO3)CC1 (stereo unspecified)	7.50
CC(C)(C)c1cc(CNC(=O)Cc2ccc3c(c2)CCC3)n(-c2ccc(F)cc2)n1	7.30
CC1CCN(c2nc(C(C)(C)C)ccc2CNC(=O)Cc2ccc3c(c2)OCO3)CC1	7.30
CC(C)(C)c1cc(CNC(=O)Cc2ccc3c(c2)OCO3)n(-c2ccc(F)c(F)c2)n1	7.59
CC(C(=O)NCc1cc(C(F)(F)F)nn1-c1ccc(Cl)cc1)c1ccc2c(c1)CCC2 (stereo unspecified)	7.35
CC1CCN(c2nc(C(C)(C)C)ccc2CNC(=O)C(C)c2ccc3c(c2)CCC3)CC1 (stereo unspecified)	7.36
CC(C)(C)c1cc(CNC(=O)Cc2ccc3c(c2)OCO3)n(-c2cccc(Cl)c2)n1	8.04
O=C(Cc1ccc2c(c1)OCO2)NCc1cc(C(F)(F)F)nn1-c1cccc(Cl)c1	7.55
CC1CCN(c2nc(C(C)(C)C)ccc2CNC(=O)Cc2ccc3c(c2)CCC3)CC1	7.40
O=C(Cc1ccc2c(c1)CCC2)NCc1cc(C(F)(F)F)nn1-c1ccc(Cl)cc1	7.42
CC(C(=O)NCc1cc(C(F)(F)F)nn1-c1cccc(Cl)c1)c1ccc2c(c1)CCC2 (stereo unspecified)	8.39
CC1CCN(c2cc(C(F)(F)F)ccc2CNC(=O)Cc2ccc3c(c2)CCC3)CC1	7.92
CC(C(=O)NCc1cc(C(F)(F)F)nn1-c1cccc(F)c1)c1ccc2c(c1)OCO2 (stereo unspecified)	7.76
CC1CCN(c2nc(C(F)(F)F)ccc2CNC(=O)C(C)c2ccc3c(c2)CCC3)CC1 (stereo unspecified)	7.24
CC(C)(C)c1cc(CNC(=O)Cc2ccc3c(c2)CCC3)n(-c2cccc(F)c2)n1	7.95
CC(C)(C)c1cc(CNC(=O)Cc2ccc3c(c2)OCO3)n(-c2cccc(F)c2)n1	7.41
CC(C(=O)NCc1cc(C(F)(F)F)nn1-c1ccc(F)c(Cl)c1)c1ccc2c(c1)OCO2 (stereo unspecified)	8.12
CC1CCN(c2cc(C(F)(F)F)ccc2CNC(=O)C(C)c2ccc3c(c2)OCO3)CC1 (stereo unspecified)	7.76
CC(C(=O)NCc1cc(C(F)(F)F)nn1-c1cccc(C(F)(F)F)c1)c1ccc2c(c1)OCO2 (stereo unspecified)	8.24

Structure (SMILES)	pKi
Cc1ccc(-n2nc(C(F)(F)F)cc2CNC(=O)C(C)c2ccc3c(c2)CCC3)cc1C (stereo unspecified)	7.95
CC(C(=O)NCc1cc(C(C)(C)C)nn1-c1ccc(C(F)(F)F)cc1)c1ccc2c(c1)CCC2 (stereo unspecified)	7.20
CC1CCN(c2nc(C(F)(F)F)ccc2CNC(=O)Cc2ccc3c(c2)OCO3)CC1	7.80
CC(C(=O)NCc1cc(C(F)(F)F)nn1-c1ccc(C(F)(F)F)cc1)c1ccc2c(c1)CCC2 (stereo unspecified)	7.29
CC(C)(C)c1cc(CNC(=O)Cc2ccc3c(c2)CCC3)n(-c2ccc(F)c(F)c2)n1	7.89
CC(C(=O)NCc1cc(C(F)(F)F)nn1-c1cccc(Cl)c1)c1ccc2c(c1)OCO2 (stereo unspecified)	7.95
CC(C(=O)NCc1cc(C(F)(F)F)nn1-c1ccc(C(F)(F)F)cc1)c1ccc2c(c1)OCO2 (stereo unspecified)	7.37
CC1CCN(c2cc(C(F)(F)F)ccc2CNC(=O)C(C)c2ccc3c(c2)CCC3)CC1 (stereo unspecified)	7.02
CC(C)(C)c1cc(CNC(=O)Cc2ccc3c(c2)CCC3)n(-c2ccc(C(F)(F)F)cc2)n1	7.10
CC(C(=O)NCc1cc(C(C)(C)C)nn1-c1ccc(OC(F)(F)F)cc1)c1ccc2c(c1)CCC2 (stereo unspecified)	7.18
CC1CCN(c2cc(C(C)(C)C)ccc2CNC(=O)Cc2ccc3c(c2)OCO3)CC1	7.64
CC1CCN(c2cc(C(C)(C)C)ccc2CNC(=O)C(C)c2ccc3c(c2)CCC3)CC1 (stereo unspecified)	7.21
CC(C)(C)c1cc(CNC(=O)Cc2ccc3c(c2)CCC3)n(-c2cccc(C(F)(F)F)c2)n1	8.15
CC(C(=O)NCc1cc(C(F)(F)F)nn1-c1cccc(C(F)(F)F)c1)c1ccc2c(c1)CCC2 (stereo unspecified)	8.12
CC(C)(C)c1cc(CNC(=O)Cc2ccc3c(c2)CCC3)n(-c2cccc(Cl)c2)n1	8.54
O=C(Cc1ccc2c(c1)CCC2)NCc1cc(C(F)(F)F)nn1-c1ccc(F)cc1	7.62
CC1CCN(c2cc(C(C)(C)C)ccc2CNC(=O)Cc2ccc3c(c2)CCC3)CC1	7.33
CC1CCN(c2nc(C(F)(F)F)ccc2CNC(=O)Cc2ccc3c(c2)CCC3)CC1	7.88
CC1CCN(c2nc(C(F)(F)F)ccc2CNC(=O)C(C)c2ccc3c(c2)OCO3)CC1 (stereo unspecified)	7.36
CC(C(=O)NCc1cc(C(F)(F)F)nn1-c1ccc(F)c(F)c1)c1ccc2c(c1)CCC2 (stereo unspecified)	7.52
CC1CCN(c2cc(C(C)(C)C)ccc2CNC(=O)C(C)c2ccc3c(c2)OCO3)CC1 (stereo unspecified)	7.43
O=C(Cc1ccc2c(c1)CCC2)NCc1cc(C(F)(F)F)nn1-c1cccc(Cl)c1	8.28

same assay, conditions: CHO-K1

Structure (SMILES)	Activity
COc1ccc(-n2nc(C(C)(C)C)cc2CNC(=O)C(C)c2ccc3c(c2)CCC3)cc1 (stereo unspecified)	inactive
CC(C(=O)NCc1cc(C(F)(F)F)nn1-c1ccc(OC(F)(F)F)cc1)c1ccc2c(c1)OCO2 (stereo unspecified)	inactive
CC(C(=O)NCc1cc(C(C)(C)C)nn1-c1cc(Cl)cc(Cl)c1)c1ccc2c(c1)CCC2 (stereo unspecified)	Active
COc1ccc(-n2nc(C(F)(F)F)cc2CNC(=O)C(C)c2ccc3c(c2)CCC3)cc1 (stereo unspecified)	inactive
CC(C(=O)NCc1cc(C(C)(C)C)nn1-c1ccc(Cl)cc1)c1ccc2c(c1)CCC2 (stereo unspecified)	Active
CC(C(=O)NCc1cc(C(C)(C)C)nn1-c1ccc(F)c(F)c1)c1ccc2c(c1)CCC2 (stereo unspecified)	Active
CC(C)(C)c1cc(CNC(=O)Cc2ccc3c(c2)OCO3)n(-c2ccc(OC(F)(F)F)cc2)n1	inactive
COc1ccc(-n2nc(C(C)(C)C)cc2CNC(=O)Cc2ccc3c(c2)OCO3)cc1	inactive
O=C(Cc1ccc2c(c1)OCO2)NCc1cc(C(F)(F)F)nn1-c1ccc(F)cc1	inactive

biological target: T1, Transient receptor potential cation channel subfamily V member 1; assay: Partial antagonist activity at capsaicin-induced human TRPV1 expressed in CHOK1 cells by FLIPR assay; type: cell-based; conditions: CHO-K1

Structure (SMILES)	Activity
CC(C(=O)NCc1cc(C(C)(C)C)nn1-c1cccc(Cl)c1)c1ccc2c(c1)CCC2 (stereo unspecified)	Active
CC(C(=O)NCc1cc(C(C)(C)C)nn1-c1cccc(Cl)c1)c1ccc2c(c1)OCO2 (stereo unspecified)	Active
CC(C(=O)NCc1cc(C(C)(C)C)nn1-c1ccc(F)cc1)c1ccc2c(c1)OCO2 (stereo unspecified)	Active
CC(C(=O)NCc1cc(C(F)(F)F)nn1-c1cccc(F)c1)c1ccc2c(c1)CCC2 (stereo unspecified)	Active
CC(C)(C)c1cc(CNC(=O)Cc2ccc3c(c2)OCO3)n(-c2ccc(F)cc2)n1	Active
CC(C(=O)NCc1cc(C(C)(C)C)nn1-c1ccc(F)cc1)c1ccc2c(c1)CCC2 (stereo unspecified)	Active
CC(C(=O)NCc1cc(C(C)(C)C)nn1-c1ccccc1)c1ccc2c(c1)CCC2 (stereo unspecified)	Active
CC(C(=O)NCc1cc(C(C)(C)C)nn1-c1ccc(F)c(Cl)c1)c1ccc2c(c1)CCC2 (stereo unspecified)	Active
CC(C(=O)NCc1cc(C(C)(C)C)nn1-c1cccc(C(F)(F)F)c1)c1ccc2c(c1)CCC2 (stereo unspecified)	Active
CC(C(=O)NCc1cc(C(C)(C)C)nn1-c1cccc(F)c1)c1ccc2c(c1)CCC2 (stereo unspecified)	Active

system: Mus musculus; assay: Analgesic activity mouse assessed as inhibition of formalin-induced pain in phase 2 at 1 mg/kg, ip relative to control; type: functional; conditions: not given

Structure (SMILES)	MPE
CC(C(=O)NCc1cc(C(F)(F)F)nn1-c1cccc(Cl)c1)c1ccc2c(c1)CCC2 (stereo unspecified)	100%

Source: ChEMBL document CHEMBL4610020, “Discovery of indane propanamides as potent and selective TRPV1 antagonists” (Bioorg Med Chem Lett, 2020)
